Some results are limits rather than exact numbers.

23 compounds from patent US20260062443A1 (ALEXION PHARMACEUTICALS, INC., priority 2022, published 2026) can be followed below.

The target of the experiment is T1, Human complement C1s enzyme (Homo sapiens, UniProt P09871).
T1 sequence (P09871 438-688 limits assumed): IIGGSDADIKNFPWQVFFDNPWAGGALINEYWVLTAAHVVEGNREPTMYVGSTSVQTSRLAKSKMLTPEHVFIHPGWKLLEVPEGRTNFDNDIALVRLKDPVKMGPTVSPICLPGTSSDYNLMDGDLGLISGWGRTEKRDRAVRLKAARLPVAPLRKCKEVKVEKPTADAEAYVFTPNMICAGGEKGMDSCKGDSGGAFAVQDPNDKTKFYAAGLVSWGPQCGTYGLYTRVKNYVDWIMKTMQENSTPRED
T1 sequence (P09871 16-437 partner limits assumed): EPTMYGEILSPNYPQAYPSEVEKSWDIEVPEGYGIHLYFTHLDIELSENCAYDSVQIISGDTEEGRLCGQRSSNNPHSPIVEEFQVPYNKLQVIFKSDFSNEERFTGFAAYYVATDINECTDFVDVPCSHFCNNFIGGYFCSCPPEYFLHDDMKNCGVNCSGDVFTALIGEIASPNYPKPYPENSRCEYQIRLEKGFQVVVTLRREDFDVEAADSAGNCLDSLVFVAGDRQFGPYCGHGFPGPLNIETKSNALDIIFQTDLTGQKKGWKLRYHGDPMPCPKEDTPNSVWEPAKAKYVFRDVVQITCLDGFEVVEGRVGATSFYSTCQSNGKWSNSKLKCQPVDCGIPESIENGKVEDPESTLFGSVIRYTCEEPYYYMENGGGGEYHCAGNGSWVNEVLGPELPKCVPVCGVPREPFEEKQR
The experiment can be described thus: Human C1s enzyme assay. Type of experiment: biochemical. The conditions noted are these: human complement C1s enzyme 1.16 nM, substrate Z-L-Lys-SBzl 100 μM, 5 min preincubation; read-out: IC50 (Stars), C1s Inhibiting Activity. A digest of the protocol: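 IC50 from nonlinear regression of reaction rates versus compound concentration, with rates taken from A405 recorded at 30 s intervals over 30 min after adding 100 μM Z-L-Lys-SBzl plus 100 μM DTNB. Enzyme was human C1s purified from serum, 1.16 nM, given 5 min compound preincubation at room temperature, pH 7.5 Tris/1 M NaCl.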
In general, IC50 refers to the concentration that inhibits the measured activity by half. Regarding `Cc1cc(C(=O)NCC(=O)N2C[C@H](OC(F)F)C[C@H]2C(=O)N[C@H](C)c2cc3cnccc3[nH]2)ccc1Oc1ccccc1` [Compound 81], the IC50 was under 100 nM.
The value for `C[C@@H](NC(=O)[C@@H]1C[C@@H](OC(F)F)CN1C(=O)CNC(=O)c1cccc(Oc2ccc(F)cc2)c1)c1cc2cnccc2[nH]1` [Compound 241, (2S,4R)-N-((R)-1-(1H-pyrrolo[3,2-c]pyridin-2-yl)ethyl)-4-(difluoromethoxy)-1-((3-(4-fluorophenoxy)benzoyl)glycyl) pyrrolidine-2-carboxamide] was under 100 nM.
Regarding `Cc1cccc(-c2nc(C)cc(C(=O)NCC(=O)N3CC4(C[C@H]3C(=O)NCc3cc5cnccc5[nH]3)OCCO4)c2C)c1` [Compound 306, (S)-N-((1H-pyrrolo[3,2-c]pyridin-2-yl)methyl)-7-((3,6-dimethyl-2-(m-tolyl)isonicotinoyl)glycyl)-1,4-dioxa-7-azaspiro[4.4]nonane-8-carboxamide], the IC50 is under 100 nM.
For `O=C(NCC(=O)N1CC2(C[C@H]1C(=O)NCc1cc3cnccc3s1)OCCO2)c1cccc(Oc2ccc(F)cc2)c1` [Compound 255, (S)-7-((3-(4-fluorophenoxy)benzoyl)glycyl)-N-(thieno[3,2-c]pyridin-2-ylmethyl)-1,4-dioxa-7-azaspiro[4.4]nonane-8-carboxamide] the value was 100 to 1000 nM; for `Cc1ccc(Oc2cccc(C(=O)NCC(=O)N3C[C@H](OC(F)F)C[C@H]3C(=O)Nc3cc4cnccc4s3)c2F)cc1` [Compound 376, (2S,4R)-4-(difluoromethoxy)-1-((2-fluoro-3-(p-tolyloxy)benzoyl)glycyl)-N-(thieno[3,2-c]pyridin-2-yl)pyrrolidine-2-carboxamide], over 1000 nM.
For `O=C(NCC(=O)N1CC2(C[C@H]1C(=O)NCc1nc3cnccc3o1)OCCO2)c1ccc2c(c1)Oc1ccccc1S2` [Compound 31, (S)-N-(oxazolo[4,5-c]pyridin-2-ylmethyl)-7-((phenoxathiine-3-carbonyl)glycyl)-1,4-dioxa-7-azaspiro[4.4]nonane-8-carboxamide] the value was over 1000 nM.
The value for `C[C@@H](NC(=O)[C@@H]1C[C@@H](OC(F)F)CN1C(=O)CNC(=O)c1ccc(-c2ccc(F)cc2F)cc1)c1cc2cnccc2[nH]1` [Compound 90, (2S,4R)-N-((R)-1-(1H-pyrrolo[3,2-c]pyridin-2-yl)ethyl)-1-((2′,4′′-difluoro-[1,1′-biphenyl]-4-carbonyl)glycyl)-4-(difluoromethoxy)pyrrolidine-2-carboxamide] was under 100 nM; that for `C[C@@]12C[C@@H]1N(C(=O)CNC(=O)CCCOc1ccccc1)[C@H](C(=O)NC1(c3ccc4c(c3)CNCC4)CC1)C2` [Compound 62, (1S,3S,5S)-5-methyl-2-((4-phenoxybutanoyl)glycyl)-N-(1-(1,2,3,4-tetrahydroisoquinolin-7-yl)cyclopropyl)-2-azabicyclo[3.1.0]hexane-3-carboxamide] was over 1000 nM.
For `C[C@@H](NC(=O)[C@@H]1C[C@@H](OC(F)F)CN1C(=O)CNC(=O)c1ccc(Oc2ccc(F)cc2)cc1)c1cc2cnccc2s1` [Compound 205, (2S,4R)-4-(difluoromethoxy)-1-((4-(4-fluorophenoxy)benzoyl)glycyl)-N-((R)-1-(thieno[3,2-c]pyridin-2-yl)ethyl)pyrrolidine-2-carboxamide], the IC50 lay in the range of 100 to 1000 nM.
As to `Cc1ccc2c(c1)Sc1ccc(C(=O)NCC(=O)N3C[C@H](OC(F)F)C[C@H]3C(=O)N[C@H](C)c3cc4cnccc4[nH]3)cc1O2` [Compound 286, (2S,4R)-N-((R)-1-(1H-pyrrolo[3,2-c]pyridin-2-yl)ethyl)-4-(difluoromethoxy)-1-((8-methylphenoxathiine-3-carbonyl)glycyl)pyrrolidine-2-carboxamide], the concentration for half-maximal inhibition (IC50) is under 100 nM.
For `Cc1ccc(Oc2cccc(C(=O)NCC(=O)N3C[C@H](OC(F)F)C[C@H]3C(=O)NCc3cc4cnccc4[nH]3)c2)c(Cl)c1` [Compound 292, (2S,4R)-N-((1H-pyrrolo[3,2-c]pyridin-2-yl)methyl)-1-((3-(2-chloro-4-methylphenoxy)benzoyl)glycyl)-4-(difluoromethoxy)pyrrolidine-2-carboxamide] the value was under 100 nM; for `CO[C@@H]1C[C@@H](C(=O)N[C@H](C)c2cc3cnccc3[nH]2)N(C(=O)CNC(=O)c2ccc3c(c2)Oc2ccccc2S3)C1` [Compound 160, (2S,4R)-N-((R)-1-(1H-pyrrolo[3,2-c]pyridin-2-yl)ethyl)-4-methoxy-1-((phenoxathiine-3-carbonyl)glycyl)pyrrolidine-2-carboxamide], under 100 nM.
The value for `CC1(O)c2ccccc2-c2cc(C(=O)NCC(=O)N3C[C@H](OC(F)F)C[C@H]3C(=O)NCc3cc4cnccc4[nH]3)ccc21` (stereo partly drawn) [Compound 314, (2S,4R)-N-((1H-pyrrolo[3,2-c]pyridin-2-yl)methyl)-4-(difluoromethoxy)-1-((9-hydroxy-9-methyl-9H-fluorene-3-carbonyl)glycyl) pyrrolidine-2-carboxamide] was under 100 nM.
With `Cc1ccc(Oc2cccc(C(=O)NCC(=O)N3N=CC[C@H]3C(=O)NCc3cc4cnccc4[nH]3)c2F)cc1` [Compound 375, (S)-N-((1H-pyrrolo[3,2-c]pyridin-2-yl)methyl)-1-((2-fluoro-3-(p-tolyloxy)benzoyl)glycyl)-4,5-dihydro-1H-pyrazole-5-carboxamide], the IC50 is under 100 nM.
As to `O=C(NCC(=O)N1CC2(C[C@H]1C(=O)NCc1cc3cc(Br)ccc3[nH]1)OCCO2)c1ccc2c(c1)Oc1ccccc1S2` [Compound 55, (S)-N-((5-bromo-1H-indol-2-yl)methyl)-7-((phenoxathiine-3-carbonyl)glycyl)-1,4-dioxa-7-azaspiro[4.4]nonane-8-carboxamide], the IC50 is over 1000 nM.
The value for `O=C(NCC(=O)N1C[C@H](OC(F)F)C[C@H]1C(=O)NCc1cc2cnccc2[nH]1)c1cccc(Oc2ccc(F)cc2F)c1` [Compound 259, (2S,4R)-N-((1H-pyrrolo[3,2-c]pyridin-2-yl)methyl)-4-(difluoromethoxy)-1-((3-(2,4-difluorophenoxy)benzoyl)glycyl)pyrrolidine-2-carboxamide] was under 100 nM; that for `COC[C@@]1(F)C[C@@H](C(=O)NCc2cc3cnccc3[nH]2)N(C(=O)CNC(=O)c2ccc(Oc3ccccc3)cc2)C1` [Compound 30, (2S,4R)-N-((1H-pyrrolo[3,2-c]pyridin-2-yl)methyl)-4-fluoro-4-(methoxymethyl)-1-((4-phenoxybenzoyl)glycyl) pyrrolidine-2-carboxamide] was under 100 nM; that for `O=C(NCC(=O)N1CC2(C[C@H]1C(=O)NCc1cc3cncc(F)c3[nH]1)OCCO2)c1ccc2c(c1)Oc1ccccc1S2` [Compound 45, (S)-N-((7-fluoro-1H-pyrrolo[3,2-c]pyridin-2-yl)methyl)-7-((phenoxathiine-3-carbonyl)glycyl)-1,4-dioxa-7-azaspiro[4.4]nonane-8-carboxamide] was over 1000 nM.
Consider `O=C(NCC(=O)N1CC2(C[C@H]1C(=O)NCc1cc3cnccc3[nH]1)OCCO2)c1ccc(Oc2ccc(Cl)c(Cl)c2)o1` [Compound 287, (S)-N-((1H-pyrrolo[3,2-c]pyridin-2-yl)methyl)-7-((5-(3,4-dichlorophenoxy)furan-2-carbonyl)glycyl)-1,4-dioxa-7-azaspiro[4.4]nonane-8-carboxamide], for which the IC50 was under 100 nM.
The value for `Cc1ccc(Oc2cccc(C(=O)NCC(=O)N3C[C@H](OC(F)F)C[C@H]3C(=O)NCc3cc4c(s3)CCNC4)c2)c(F)c1` [Compound 338, (2S,4R)-4-(difluoromethoxy)-1-((3-(2-fluoro-4-methylphenoxy)benzoyl)glycyl)-N-((4,5,6,7-tetrahydrothieno[3,2-c]pyridin-2-yl)methyl) pyrrolidine-2-carboxamide] was under 100 nM; that for `O=C(NCC(=O)N1CC2(C[C@H]1C(=O)NCc1cc3ncccc3[nH]1)OCCO2)c1ccc2c(c1)-c1ccccc1C2(F)F` [Compound 34, (S)-N-((1H-pyrrolo[3,2-b]pyridin-2-yl)methyl)-7-((9,9-difluoro-9H-fluorene-3-carbonyl)glycyl)-1,4-dioxa-7-azaspiro[4.4]nonane-8-carboxamide] was over 1000 nM; that for `O=C(NCC(=O)N1CC2(C[C@H]1C(=O)NCc1cc3cc(Cl)ccc3[nH]1)OCCO2)c1ccc2c(c1)Oc1ccccc1S2` [Compound 19, (S)-N-((5-chloro-1H-indol-2-yl)methyl)-7-((phenoxathiine-3-carbonyl)glycyl)-1,4-dioxa-7-azaspiro[4.4]nonane-8-carboxamide] was over 1000 nM.
For `O=C(NCc1cc2cnccc2[nH]1)[C@@H]1CC2(CN1C(=O)CN1Cc3ccc(-c4ccc(F)cc4F)cc3C1=O)OCCO2` [Compound 125, (S)-N-((1H-pyrrolo[3,2-c]pyridin-2-yl)methyl)-7-(2-(6-(2,4-difluorophenyl)-1-oxoisoindolin-2-yl)acetyl)-1,4-dioxa-7-azaspiro[4.4]nonane-8-carboxamide] the value was under 100 nM.
